The text below walks through data of patent publication US20230103791A1 (GLAXOSMITHKLINE INTELLECTUAL PROPERTY DEVELOPMENT LIMITED, priority 2019, published 2023).

Structures are written as SMILES. Some results are limits rather than exact numbers.

T1 sequence (Q9Y5Y9 whole entry): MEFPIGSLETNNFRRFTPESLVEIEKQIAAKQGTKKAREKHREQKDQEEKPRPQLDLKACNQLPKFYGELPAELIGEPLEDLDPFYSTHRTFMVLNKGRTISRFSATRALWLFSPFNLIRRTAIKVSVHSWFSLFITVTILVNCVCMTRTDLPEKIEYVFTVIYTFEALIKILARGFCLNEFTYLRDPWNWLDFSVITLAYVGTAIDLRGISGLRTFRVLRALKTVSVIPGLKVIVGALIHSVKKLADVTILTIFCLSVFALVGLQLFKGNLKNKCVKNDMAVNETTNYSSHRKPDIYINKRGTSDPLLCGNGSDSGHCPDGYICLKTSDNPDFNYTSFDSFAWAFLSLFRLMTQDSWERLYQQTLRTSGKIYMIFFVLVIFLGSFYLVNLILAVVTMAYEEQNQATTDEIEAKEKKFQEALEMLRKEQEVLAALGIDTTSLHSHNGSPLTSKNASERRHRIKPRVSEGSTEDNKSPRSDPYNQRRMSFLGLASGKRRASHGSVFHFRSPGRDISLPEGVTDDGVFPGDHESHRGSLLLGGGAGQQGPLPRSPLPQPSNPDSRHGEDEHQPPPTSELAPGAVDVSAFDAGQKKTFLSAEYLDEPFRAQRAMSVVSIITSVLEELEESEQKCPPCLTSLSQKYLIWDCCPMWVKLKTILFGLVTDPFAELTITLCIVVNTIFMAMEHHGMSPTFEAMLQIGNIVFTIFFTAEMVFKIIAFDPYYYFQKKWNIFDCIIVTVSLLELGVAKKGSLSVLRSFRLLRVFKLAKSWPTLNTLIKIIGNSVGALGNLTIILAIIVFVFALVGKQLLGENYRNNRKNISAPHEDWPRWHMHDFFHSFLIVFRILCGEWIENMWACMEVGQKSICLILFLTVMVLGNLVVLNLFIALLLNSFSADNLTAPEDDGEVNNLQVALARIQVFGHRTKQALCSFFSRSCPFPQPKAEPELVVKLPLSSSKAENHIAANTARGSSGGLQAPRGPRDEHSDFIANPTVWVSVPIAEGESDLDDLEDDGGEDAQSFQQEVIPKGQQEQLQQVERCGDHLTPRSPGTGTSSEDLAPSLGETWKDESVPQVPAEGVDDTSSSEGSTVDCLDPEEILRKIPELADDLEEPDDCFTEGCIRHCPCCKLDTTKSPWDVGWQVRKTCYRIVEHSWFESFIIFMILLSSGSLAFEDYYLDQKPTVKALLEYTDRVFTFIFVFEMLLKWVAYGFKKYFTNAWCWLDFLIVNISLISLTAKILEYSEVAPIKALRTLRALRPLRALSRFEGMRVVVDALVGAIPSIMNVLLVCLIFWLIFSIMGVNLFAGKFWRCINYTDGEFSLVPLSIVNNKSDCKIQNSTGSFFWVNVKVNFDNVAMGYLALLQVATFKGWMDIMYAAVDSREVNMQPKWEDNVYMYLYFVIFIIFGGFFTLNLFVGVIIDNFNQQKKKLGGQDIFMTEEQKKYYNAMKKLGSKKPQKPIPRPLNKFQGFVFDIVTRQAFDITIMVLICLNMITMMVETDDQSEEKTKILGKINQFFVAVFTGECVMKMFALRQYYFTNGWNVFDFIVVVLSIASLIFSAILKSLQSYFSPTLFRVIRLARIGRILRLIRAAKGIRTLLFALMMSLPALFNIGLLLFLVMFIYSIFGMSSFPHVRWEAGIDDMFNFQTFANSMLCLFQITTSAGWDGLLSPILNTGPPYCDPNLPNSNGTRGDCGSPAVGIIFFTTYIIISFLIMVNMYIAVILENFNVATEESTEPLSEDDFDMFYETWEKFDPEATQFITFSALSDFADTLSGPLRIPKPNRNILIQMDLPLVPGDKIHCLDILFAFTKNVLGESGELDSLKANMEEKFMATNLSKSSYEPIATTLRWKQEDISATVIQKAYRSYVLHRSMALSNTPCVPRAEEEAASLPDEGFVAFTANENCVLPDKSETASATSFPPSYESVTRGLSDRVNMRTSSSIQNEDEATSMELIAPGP
T1 sequence (Q07699 19-218 partner): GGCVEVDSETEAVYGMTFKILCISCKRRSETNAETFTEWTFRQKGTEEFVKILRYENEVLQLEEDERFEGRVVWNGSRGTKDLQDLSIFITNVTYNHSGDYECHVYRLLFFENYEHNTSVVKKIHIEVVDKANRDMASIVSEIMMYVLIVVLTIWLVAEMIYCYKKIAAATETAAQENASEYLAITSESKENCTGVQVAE

The first assay concerns the target T1, human Nav1.8 (Homo sapiens, UniProt Q9Y5Y9).
T1 construct: expressed in transfected cells; host or cells: HEK293 (HEK293-Nav1.8)
Put plainly: Nav1.8 sodium channels assay, QPatch 48 HTX electrophysiology in HEK293-Nav1.8 cells. Type of assay: cell-based. Particulars: Table 1; HEK293-Nav1.8, QPatch 48 HTX, half inactivation state voltage protocol (V1/2); single run or average of two or more runs; read-out: Nav1.8 pIC50 (converted). In short, it runs like this: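 IC50 came from 6-8 point curves of P2 current amplitude, normalized to baseline and a positive reference, and corrected for run-down using vehicle-only wells. Automated patch clamp used HEK293-Nav1.8 (with Navβ1 and TREK1) at pH 7.4 outside and CsF-based solution inside. An 8 s inactivating step at −46 mV preceded the 0 mV test pulse, repeated at 0.07 Hz.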
For orientation: In patch-clamp work, channel activity is measured electrically.
With `Cc1cc(F)ccc1N1CN(c2ccc(=O)[nH]c2)C(=O)c2c1cccc2C(F)(F)F` [drawing 267, 1-(4-fluoro-2-methylphenyl)-3-(6-oxo-1,6-dihydropyridin-3-yl)-5-(trifluoromethyl)-2,3-dihydroquinazolin-4(1H)-one], the IC50 is 2510 nM.

Regarding `Cc1cc(C#N)ccc1N1CN(c2ccc(=O)[nH]c2C)C(=O)c2ccc(C(F)(F)F)cc21` [drawing 287, 3-methyl-4-(3-(2-methyl-6-oxo-1,6-dihydropyridin-3-yl)-4-oxo-7-(trifluoromethyl)-3,4-dihydroquinazolin-1(2H)-yl)benzonitrile], the IC50 is 63.1 nM. The same measure, in the same setting: next, `CCc1cc(F)ccc1N1CN(c2ccc(=O)[nH]c2)C(=O)c2ccc(C(F)(F)F)cc21` [drawing 280, 1-(2-ethyl-4-fluorophenyl)-3-(6-oxo-1,6-dihydropyridin-3-yl)-7-(trifluoromethyl)-2,3-dihydroquinazolin-4(1H)-one]: 251 nM; `Cc1cc(F)ccc1N1CN(c2ccc(=O)[nH]c2C)C(=O)c2cc(C(F)(F)F)ccc21` [drawing 286, 1-(4-fluoro-2-methylphenyl)-3-(2-methyl-6-oxo-1,6-dihydropyridin-3-yl)-6-(trifluoromethyl)-2,3-dihydroquinazolin-4(1H)-one]: 15.8 nM. On the same count and under the same terms, under `Cc1ccc2c(c1)N(c1ccc(F)cc1C)CN(c1ccc(=O)[nH]c1C)C2=O` [drawing 304, 1-(4-fluoro-2-methylphenyl)-7-methyl-3-(2-methyl-6-oxo-1,6-dihydropyridin-3-yl)-2,3-dihydroquinazolin-4(1H)-one] stands 1.58 nM; under `Cc1cc(F)ccc1N1CN(c2ccc(=O)[nH]n2)C(=O)c2ccc(C(F)(F)F)cc21` [drawing 307, 1-(4-fluoro-2-methylphenyl)-3-(6-oxo-1,6-dihydropyridazin-3-yl)-7-(trifluoromethyl)-2,3-dihydroquinazolin-4(1H)-one], 2000 nM. As to `Cc1cc(F)ccc1N1CN(c2cnc(=O)[nH]c2)C(=O)c2ccc(C(F)(F)F)cc21` [drawing 306, 1-(4-fluoro-2-methylphenyl)-3-(2-oxo-1,2-dihydropyrimidin-5-yl)-7-(trifluoromethyl)-2,3-dihydroquinazolin-4(1H)-one], the IC50 was 501 nM.

For `CCOc1ccc(N2CN(c3ccc(=O)[nH]c3C)C(=O)c3ccc(C(F)(F)F)cc32)cc1` [drawing 302, 1-(4-ethoxyphenyl)-3-(2-methyl-6-oxo-1,6-dihydropyridin-3-yl)-7-(trifluoromethyl)-2,3-dihydroquinazolin-4(1H)-one], the IC50 is 398 nM.

Staying with this assay, now noted: Table 2; HEK293-Nav1.8, QPatch 48 HTX, half inactivation state voltage protocol (V1/2); single run or average of two or more runs; read-out: Nav1.8 pIC50 (converted).
With `Cc1cc(N2CN(c3ccc(F)cc3C)c3cc(C(F)(F)F)ccc3C2=O)cc(=O)[nH]1` [drawing 310, 1-(4-fluoro-2-methylphenyl)-3-(6-methyl-2-oxo-1,2-dihydropyridin-4-yl)-7-(trifluoromethyl)-2,3-dihydroquinazolin-4(1H)-one], the IC50 is 2510 nM.

The assay is the same for the next values; noted with them: at least one set of experimental runs; read-out: average pIC50 value against Nav1.8 (converted).
In the case of `Cc1cc(F)ccc1N1CN(c2ccc(=O)[nH]c2C)C(=O)c2c1ccc(Cl)c2F` [Example 79, 6-chloro-5-fluoro-1-(4-fluoro-2-methylphenyl)-3-(2-methyl-6-oxo-1,6-dihydropyridin-3-yl)-2,3-dihydroquinazolin-4(1H)-one], the IC50 is at most 100 nM.

For the compound `Cc1ccc2c(c1)N(c1ccc(F)cc1C)CN(c1ccc(=O)[nH]c1C)C2=O` [Example 57, 1-(4-fluoro-2-methylphenyl)-7-methyl-3-(2-methyl-6-oxo-1,6-dihydropyridin-3-yl)-2,3-dihydroquinazolin-4(1H)-one], the IC50 was at most 100 nM.

As for `Cc1[nH]c(=O)ccc1N1CN(c2ccc(F)cc2C(C)C)c2cc(C(F)(F)F)ccc2C1=O` [Example 47, 1-(4-fluoro-2-isopropylphenyl)-3-(2-methyl-6-oxo-1,6-dihydropyridin-3-yl)-7-(trifluoromethyl)-2,3-dihydroquinazolin-4(1H)-one], the IC50 is at most 100 nM. Consider `Cc1cc(O)ccc1N1CN(c2ccc(F)cc2C)c2cc(C(F)(F)F)ccc2C1=O` [Example 267, 1-(4-Fluoro-2-methylphenyl)-3-(4-hydroxy-2-methylphenyl)-7-(trifluoromethyl)-2,3-dihydroquinazolin-4(1H)-one], for which the IC50 was 794 to 7940 nM.

For `COc1cc(F)ccc1N1CN(c2ccc(=O)[nH]c2)C(=O)c2ccc(C#N)cc21` [Example 229, 1-(4-fluoro-2-methoxyphenyl)-4-oxo-3-(6-oxo-1,6-dihydropyridin-3-yl)-1,2,3,4-tetra-hydroquinazoline-7-carbonitrile], the IC50 was 794 to 7940 nM. As for `Cc1cc(F)ccc1N1CN(c2cc(=O)[nH]c(=O)[nH]2)C(=O)c2ccc(C(F)(F)F)cc21` [Example 59, 6-(1-(4-fluoro-2-methylphenyl)-4-oxo-7-(trifluoromethyl)-1,4-dihydroquinazolin-3(2H)-yl)pyrimidine-2,4(1H,3H)-dione], the IC50 is 794 to 7940 nM. On to `Cc1cc(F)ccc1N1CN(c2ccc(=O)[nH]c2C)C(=O)c2cccc(Cl)c21` [Example 124, 8-chloro-1-(4-fluoro-2-methylphenyl)-3-(2-methyl-6-oxo-1,6-dihydropyridin-3-yl)-2,3-dihydroquinazolin-4(1H)-one], for which the IC50 is 794 to 7940 nM.

`CCOc1ccc(N2CN(c3ccc(=O)[nH]c3C)C(=O)c3ccc(C(F)(F)F)cc32)cc1` [Example 156, 1-(4-ethoxyphenyl)-3-(2-methyl-6-oxo-1,6-dihydropyridin-3-yl)-7-(trifluoromethyl)-2,3-dihydroquinazolin-4(1H)-one]: the IC50 is 126 to 631 nM. In the case of `Cc1cc(F)ccc1N1CN(c2ccc(=O)[nH]c2)C(=O)c2c1cccc2C(F)(F)F` [Example 217, 1-(4-fluoro-2-methylphenyl)-3-(6-oxo-1,6-dihydropyridin-3-yl)-5-(trifluoromethyl)-2,3-dihydroquinazolin-4(1H)-one], the IC50 is 794 to 7940 nM. Regarding `Cc1cc(F)ccc1N1CN(c2c[nH]nc2C)C(=O)c2cc(C(F)(F)F)ccc21` [Example 28, 1-(4-fluoro-2-methylphenyl)-3-(3-methyl-1H-pyrazol-4-yl)-6-(trifluoromethyl)-2,3-dihydroquinazolin-4(1H)-one], the IC50 is 126 to 631 nM. Same read-out and setting: next, `Cc1[nH]c(=O)ccc1N1CN(c2ccc(F)cc2C(C)C)c2cc(F)c(F)cc2C1=O` [Example 159, 6,7-difluoro-1-(4-fluoro-2-isopropylphenyl)-3-(2-methyl-6-oxo-1,6-dihydropyridin-3-yl)-2,3-dihydroquinazolin-4(1H)-one]: at most 100 nM; `Cc1[nH]c(=O)ccc1N1CN(c2ccc(F)cc2C(C)(C)C)c2cc(C(F)(F)F)ccc2C1=O` [Example 114, 1-(2-(tert-butyl)-4-fluorophenyl)-3-(2-methyl-6-oxo-1,6-dihydropyridin-3-yl)-7-(trifluoromethyl)-2,3-dihydroquinazolin-4(1H)-one]: at most 100 nM. For the compound `COc1ccc(N2CN(c3ccc(F)cc3C)c3ccc(C(F)(F)F)cc3C2=O)c(C)n1` [Example 19, 1-(4-fluoro-2-methylphenyl)-3-(6-methoxy-2-methylpyridin-3-yl)-6-(trifluoromethyl)-2,3-dihydroquinazolin-4(1H)-one], the IC50 is 794 to 7940 nM. `Cc1cc(Br)ccc1N1CN(c2ccc(=O)[nH]c2)C(=O)c2ccc(C(F)(F)F)cc21` [Example 146, 1-(4-bromo-2-methylphenyl)-3-(6-oxo-1,6-dihydropyridin-3-yl)-7-(trifluoromethyl)-2,3-dihydroquinazolin-4(1H)-one]: the IC50 was 126 to 631 nM. `Cc1[nH]c(=O)ccc1N1CN(c2ccc(F)cc2C(C)C)c2cc(OC(F)(F)F)ccc2C1=O` [Example 103, 1-(4-fluoro-2-isopropylphenyl)-3-(2-methyl-6-oxo-1,6-dihydropyridin-3-yl)-7-(trifluoromethoxy)-2,3-dihydroquinazolin-4(1H)-one]: the IC50 is at most 100 nM. On the same count and under the same terms, under `Cc1cc(N)ncc1N1CN(c2ccc(F)cc2C)c2ccc(C(F)(F)F)cc2C1=O` [Example 277, 3-(6-Amino-4-methylpyridin-3-yl)-1-(4-fluoro-2-methylphenyl)-6-(trifluoromethyl)-2,3-dihydroquinazolin-4(1H)-one] stands 126 to 631 nM. `Cc1cc(F)ccc1N1CN(c2cc[nH]c(=O)c2)C(=O)c2ccc(C(F)(F)F)cc21` [Example 157, 1-(4-fluoro-2-methylphenyl)-3-(2-oxo-1,2-dihydropyridin-4-yl)-7-(trifluoromethyl)-2,3-dihydroquinazolin-4(1H)-one]: the IC50 was 126 to 631 nM. On the same count and under the same terms, next, `COc1cc(F)ccc1N1CN(c2ccc(=O)[nH]c2C)C(=O)c2cc(Cl)ccc21` [Example 91, 6-chloro-1-(4-fluoro-2-methoxyphenyl)-3-(2-methyl-6-oxo-1,6-dihydropyridin-3-yl)-2,3-dihydroquinazolin-4(1H)-one]: at most 100 nM. For `Cc1[nH]c(=O)ccc1N1CN(c2ccc(F)cc2Br)c2ccc(C(F)(F)F)cc2C1=O` [Example 142, 1-(2-bromo-4-fluorophenyl)-3-(2-methyl-6-oxo-1,6-dihydropyridin-3-yl)-6-(trifluoromethyl)-2,3-dihydroquinazolin-4(1H)-one], the IC50 is at most 100 nM. On to `Cc1cc(F)ccc1N1CN(c2c[nH]c(=O)cn2)C(=O)c2ccc(C(F)(F)F)cc21` [Example 84, 1-(4-fluoro-2-methylphenyl)-3-(5-oxo-4,5-dihydropyrazin-2-yl)-7-(trifluoromethyl)-2,3-dihydroquinazolin-4(1H)-one], for which the IC50 is 794 to 7940 nM.
